Reference: publication PMC11089204 (Frontiers in Pharmacology, 2024)
Several values for one entry are separate records, joined by “and”; a condition that tells them apart may be missing. Identical values can stand only once. Like-named read-outs stand apart in the source and are kept apart here.

Assays:
[1] = biological target: T1, human 5-HT1A receptor (Homo sapiens, UniProt P08908); assay: 5-HT activation potency (IP1 accumulation), 5-HT1A; type: cell-based; set-up: expressed in transfected cells
T1 sequence (P08908 1-422): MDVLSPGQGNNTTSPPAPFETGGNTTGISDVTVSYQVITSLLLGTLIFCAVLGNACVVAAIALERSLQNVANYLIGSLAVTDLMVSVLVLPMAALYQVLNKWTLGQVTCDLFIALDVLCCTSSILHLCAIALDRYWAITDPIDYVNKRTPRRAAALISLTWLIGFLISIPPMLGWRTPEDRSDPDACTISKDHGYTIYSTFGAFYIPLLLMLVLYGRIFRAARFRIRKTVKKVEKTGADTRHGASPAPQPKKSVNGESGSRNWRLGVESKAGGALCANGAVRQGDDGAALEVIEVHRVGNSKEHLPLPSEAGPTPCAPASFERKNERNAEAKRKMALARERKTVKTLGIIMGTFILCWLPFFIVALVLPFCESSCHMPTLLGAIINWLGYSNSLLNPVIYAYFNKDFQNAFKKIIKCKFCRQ
Experimental: . […] NIH/3T3 cells stably expressing the human 5-HT1A, 5-HT2A, and 5-HT2B receptors were seeded at a density of 3,000 cells (5-HT1A and 5-HT2A) or 4,000 cells (5-HT2B) in 384-well plates using Opti-MEM medium from Gibco (ThermoFisher, Life Technologies, Zug, Switzerland). Subsequently, the test compounds were introduced, and the plates were incubated for 90 min at 37°C, followed by a 60 min incubation with Anti-IP1-Cryptate and IP1-d2 at room temperature. The formation of stimulated IP1 was quantified by homogeneous time-resolved fluorescence (HTRF) measurements using a BioTek Synergy H1 microplate reader (Agilent Technologies, Basel, Switzerland). The obtained raw data for receptor activation were subjected to normalization, wherein the baseline signal was set at 0%, and the maximum signal stimulated by 5-HT at the specific receptor was established as 100%.

[2] = biological target: T2, human 5-HT2A receptor (Homo sapiens, UniProt P28223); assay: 5-HT activation potency (IP1 accumulation), 5-HT2A; type: cell-based; set-up: expressed in transfected cells; details: NIH/3T3 cells, read-out: h5-HT2A Activation potency EC50 ± SD
T2 sequence (P28223 whole entry): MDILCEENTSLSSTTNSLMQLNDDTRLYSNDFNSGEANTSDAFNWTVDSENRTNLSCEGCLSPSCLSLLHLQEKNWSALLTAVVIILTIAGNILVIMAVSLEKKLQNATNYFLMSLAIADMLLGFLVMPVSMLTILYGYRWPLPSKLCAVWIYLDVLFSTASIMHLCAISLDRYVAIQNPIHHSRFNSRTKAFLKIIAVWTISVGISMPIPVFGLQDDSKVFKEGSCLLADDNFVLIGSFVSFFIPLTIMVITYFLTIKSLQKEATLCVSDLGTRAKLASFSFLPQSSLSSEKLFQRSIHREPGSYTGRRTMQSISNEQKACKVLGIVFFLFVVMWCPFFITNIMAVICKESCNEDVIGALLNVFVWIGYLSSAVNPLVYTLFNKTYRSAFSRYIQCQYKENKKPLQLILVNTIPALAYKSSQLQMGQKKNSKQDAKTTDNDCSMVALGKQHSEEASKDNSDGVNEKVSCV
Experimental: (§1) NIH/3T3 cells stably expressing the human 5-HT1A, 5-HT2A, and 5-HT2B receptors were seeded at a density of 3,000 cells (5-HT1A and 5-HT2A) or 4,000 cells (5-HT2B) in 384-well plates using Opti-MEM medium from Gibco (ThermoFisher, Life Technologies, Zug, Switzerland). Subsequently, the test compounds were introduced, and the plates were incubated for 90 min at 37°C, followed by a 60 min incubation with Anti-IP1-Cryptate and IP1-d2 at room temperature. The formation of stimulated IP1 was quantified by homogeneous time-resolved fluorescence (HTRF) measurements using a BioTek Synergy H1 microplate reader (Agilent Technologies, Basel, Switzerland). The obtained raw data for receptor activation were subjected to normalization, wherein the baseline signal was set at 0%, and the maximum signal stimulated by 5-HT at the specific receptor was established as 100%.

[3] = biological target: T3, recombinant MAO-B (Homo sapiens, UniProt P27338); assay: Incubation with recombinant MAO-B enzymes; type: in vitro ADME; details: 1,000 nM psilocin, rec. MAO-B
T3 construct: purchased Corning Life Sciences B.V
T3 sequence (P27338 1-520): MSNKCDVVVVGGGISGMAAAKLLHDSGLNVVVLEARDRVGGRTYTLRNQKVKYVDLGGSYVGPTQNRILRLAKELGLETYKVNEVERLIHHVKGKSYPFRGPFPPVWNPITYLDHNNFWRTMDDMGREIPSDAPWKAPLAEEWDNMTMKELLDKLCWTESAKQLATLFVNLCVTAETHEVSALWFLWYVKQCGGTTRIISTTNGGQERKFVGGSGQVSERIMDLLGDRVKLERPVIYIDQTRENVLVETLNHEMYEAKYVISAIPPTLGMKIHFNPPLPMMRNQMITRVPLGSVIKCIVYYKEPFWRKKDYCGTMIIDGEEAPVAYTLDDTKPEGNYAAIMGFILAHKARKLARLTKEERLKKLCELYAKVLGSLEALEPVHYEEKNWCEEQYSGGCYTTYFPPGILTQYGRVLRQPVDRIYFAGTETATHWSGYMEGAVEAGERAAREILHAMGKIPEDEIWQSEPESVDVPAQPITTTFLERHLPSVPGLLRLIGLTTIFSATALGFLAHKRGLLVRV
Experimental: Corning UltraPool human liver microsomes (HLM) 150 (20 mg/mL), human intestinal microsomes (HIM) pool (10 mg/mL) as well as recombinant human CYP enzymes (with P450 oxidoreductase, OR) including CYP1A2+OR (0.5 nmol), CYP2B6+OR (0.5 nmol), CYP2C8+OR (1.0 nmol), CYP2C9*1+OR (1 nmol), CYP2C19+OR (0.5 nmol), CYP2D6*1+OR (0.5 nmol), CYP2E1+OR + cytochrome b5 (1 nmol), CYP3A4+OR + cytochrome b5 (0.5 nmol), MAO-A (5 mg/mL), MAO-B (5 mg/mL), and UGT1A10 (5 mg/mL) were purchased from Corning Life Sciences B.V (Amsterdam, Netherlands). All microsomes and recombinant enzyme solutions were aliquoted and stored at −80 °C until further use.
The MAO inhibition assay was based on the assay described in section 2.5.1 and performed identically if not otherwise stated.

[4] = biological target: T4, human 5-HT2B receptor (Homo sapiens, UniProt P41595); assay: 5-HT activation potency (IP1 accumulation), 5-HT2B; type: cell-based; details: NIH/3T3 cells, read-out: h5-HT2B Activation potency EC50 ± SD
T4 construct: expressed in transfected cells; host or cells: NIH/3T3
T4 sequence (P41595 whole entry): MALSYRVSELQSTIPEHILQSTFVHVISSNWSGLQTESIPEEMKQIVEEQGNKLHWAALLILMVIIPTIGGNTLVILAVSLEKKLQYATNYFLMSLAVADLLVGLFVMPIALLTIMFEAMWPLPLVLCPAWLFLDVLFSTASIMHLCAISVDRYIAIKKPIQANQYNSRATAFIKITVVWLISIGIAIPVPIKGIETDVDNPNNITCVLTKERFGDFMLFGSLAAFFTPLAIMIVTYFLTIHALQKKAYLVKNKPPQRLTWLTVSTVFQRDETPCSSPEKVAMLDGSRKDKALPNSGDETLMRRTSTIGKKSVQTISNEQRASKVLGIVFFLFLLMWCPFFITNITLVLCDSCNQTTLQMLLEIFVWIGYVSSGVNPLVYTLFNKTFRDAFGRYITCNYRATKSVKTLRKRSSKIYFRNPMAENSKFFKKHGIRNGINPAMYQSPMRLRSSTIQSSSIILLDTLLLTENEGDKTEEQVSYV
Experimental: as §1

[5] = biological target: T2, human 5-HT2A receptor; assay: Radioligand receptor binding, 5-HT2A; set-up: expressed in transfected cells; host or cells: HEK 293 membrane preparations; details: HEK 293 membranes, [3H]ketanserin; read-out: h5-HT2A Receptor binding Ki ± SD
[6] = biological target: T5, human 5-HT2C receptor (Homo sapiens, UniProt P28335); assay: biochemical; details: HEK 293 membranes, [3H]mesulergine; read-out: h5-HT2C Receptor binding Ki ± SD
T5 construct: expressed in transfected cells; host or cells: HEK 293 membrane preparations
T5 sequence (P28335 33-458): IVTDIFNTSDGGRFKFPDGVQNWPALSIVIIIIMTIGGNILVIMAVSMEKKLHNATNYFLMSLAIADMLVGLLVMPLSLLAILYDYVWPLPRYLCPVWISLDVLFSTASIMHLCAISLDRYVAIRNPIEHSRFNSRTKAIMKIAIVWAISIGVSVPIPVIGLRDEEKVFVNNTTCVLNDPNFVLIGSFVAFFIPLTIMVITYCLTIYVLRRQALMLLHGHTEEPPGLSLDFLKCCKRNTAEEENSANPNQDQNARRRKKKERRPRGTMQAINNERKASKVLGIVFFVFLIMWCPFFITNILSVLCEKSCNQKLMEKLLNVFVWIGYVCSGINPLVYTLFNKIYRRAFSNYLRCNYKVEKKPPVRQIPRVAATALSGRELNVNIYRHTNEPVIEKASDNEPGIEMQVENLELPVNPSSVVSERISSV

[7] = cited from earlier work; for fraction of administered psilocybin dose excreted in urine: oral psilocybin, within 24 h (time not stated for 4-HIAA)
[8] = biological target: T1, human 5-HT1A receptor; assay: Radioligand receptor binding, 5-HT1A; set-up: expressed in transfected cells; host or cells: HEK 293 membrane preparations; details: HEK 293 membranes, [3H]8-OH-DPAT
[9] = NIH/3T3 cells, IP1 accumulation, read-out: h5-HT1A Activation potency EC50 ± SD
[10] = humans, ref Holze et al., 2022a
[11] = read-out: h5-HT1A Receptor binding Ki ± SD
[12] = humans, single oral dose of 25 mg psilocybin, ref Kolaczynska et al., 2021, Holze et al., 2022a

| SMILES | EC50 [1, 9] | EC50 [2] | formation of metabolite from psilocin [3] | EC50 [4] | Ki [5] | Ki [6] | fraction of administered psilocybin dose excreted in urine [7, 10] | maximal concentrations relative to psilocin (higher) ([7]; humans, ref Holze et al., 2022a, Becker et al., 2022) | Ki [8, 11] | EC50 [1] | change of psilocin concentration [3] | time of peak plasma concentration ([7]; after oral administration, ref Griffiths et al., 2016, Johnson et al., 2017, Holze et al., 2022a) | plasma elimination half-life in humans ([7]; humans, no reference given) | elimination half-life (t1/2) [7, 12] | psilocin plasma concentrations [7, 12] | Ki ([8]; h5-HT1A Receptor binding Ki ± SD) |
| --- | --- | --- | --- | --- | --- | --- | --- | --- | --- | --- | --- | --- | --- | --- | --- | --- |
| O=C(O)Cc1c[nH]c2cccc(O)c12 [4-HIAA, 4-hydroxyindole-3-acetic acid] | > 10 µM | > 10 µM | did not produce any | > 10 µM | > 10 µM | > 10 µM | Around 33% | 4–5 fold | > 10 µM |  |  |  |  |  |  |  |
| CN(C)CCc1c[nH]c2cccc(O)c12 [psilocin, 4-hydroxy-N,N-dimethyltryptamine] |  |  |  |  |  |  | 1.5% |  |  | 0.0017 ± 0.0024 µM | did not visibly decrease | around 2 h | approximately 2 h | 2 to 3 h | 15 to 20 ng/mL | < 0.136 µM and 0.128 µM |
| OCCc1c[nH]c2cccc(O)c12 [4-HTP, 4-hydroxytryptophol] | > 10 µM | > 10 µM | did not produce any | > 10 µM | > 10 µM | > 10 µM |  |  | > 10 µM |  |  |  |  |  |  |  |
